In ChEMBL document CHEMBL3763130, “Recent advances in the development of dual VEGFR and c-Met small molecule inhibitors as anticancer drugs” (Eur J Med Chem, 2016):
Blank lines part the entries; values can stand above or below the compound they belong to.

Assays:
[1] = target: Vascular endothelial growth factor receptor 3 (Homo sapiens, UniProt P35916); experiment: Inhibition of VEGFR-3 (unknown origin) by AlphaScreen assay
[2] = target: Vascular endothelial growth factor receptor 1 (Homo sapiens, UniProt P17948); experiment: Inhibition of VEGFR-1 (unknown origin) by AlphaScreen assay
[3] = target: Macrophage-stimulating protein receptor (Homo sapiens, UniProt Q04912); experiment: Inhibition of Ron (unknown origin)
Sequence of Macrophage-stimulating protein receptor (Q04912 25-304 limits assumed): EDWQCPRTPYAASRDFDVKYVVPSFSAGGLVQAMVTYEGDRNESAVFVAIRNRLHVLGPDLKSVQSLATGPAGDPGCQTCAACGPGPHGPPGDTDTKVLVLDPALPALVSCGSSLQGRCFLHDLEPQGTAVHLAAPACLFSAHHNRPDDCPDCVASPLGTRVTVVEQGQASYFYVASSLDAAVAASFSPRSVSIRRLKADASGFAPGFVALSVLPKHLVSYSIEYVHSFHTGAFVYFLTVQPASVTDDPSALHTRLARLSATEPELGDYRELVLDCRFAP
Sequence of Macrophage-stimulating protein receptor (Q04912 310-1400 limits assumed): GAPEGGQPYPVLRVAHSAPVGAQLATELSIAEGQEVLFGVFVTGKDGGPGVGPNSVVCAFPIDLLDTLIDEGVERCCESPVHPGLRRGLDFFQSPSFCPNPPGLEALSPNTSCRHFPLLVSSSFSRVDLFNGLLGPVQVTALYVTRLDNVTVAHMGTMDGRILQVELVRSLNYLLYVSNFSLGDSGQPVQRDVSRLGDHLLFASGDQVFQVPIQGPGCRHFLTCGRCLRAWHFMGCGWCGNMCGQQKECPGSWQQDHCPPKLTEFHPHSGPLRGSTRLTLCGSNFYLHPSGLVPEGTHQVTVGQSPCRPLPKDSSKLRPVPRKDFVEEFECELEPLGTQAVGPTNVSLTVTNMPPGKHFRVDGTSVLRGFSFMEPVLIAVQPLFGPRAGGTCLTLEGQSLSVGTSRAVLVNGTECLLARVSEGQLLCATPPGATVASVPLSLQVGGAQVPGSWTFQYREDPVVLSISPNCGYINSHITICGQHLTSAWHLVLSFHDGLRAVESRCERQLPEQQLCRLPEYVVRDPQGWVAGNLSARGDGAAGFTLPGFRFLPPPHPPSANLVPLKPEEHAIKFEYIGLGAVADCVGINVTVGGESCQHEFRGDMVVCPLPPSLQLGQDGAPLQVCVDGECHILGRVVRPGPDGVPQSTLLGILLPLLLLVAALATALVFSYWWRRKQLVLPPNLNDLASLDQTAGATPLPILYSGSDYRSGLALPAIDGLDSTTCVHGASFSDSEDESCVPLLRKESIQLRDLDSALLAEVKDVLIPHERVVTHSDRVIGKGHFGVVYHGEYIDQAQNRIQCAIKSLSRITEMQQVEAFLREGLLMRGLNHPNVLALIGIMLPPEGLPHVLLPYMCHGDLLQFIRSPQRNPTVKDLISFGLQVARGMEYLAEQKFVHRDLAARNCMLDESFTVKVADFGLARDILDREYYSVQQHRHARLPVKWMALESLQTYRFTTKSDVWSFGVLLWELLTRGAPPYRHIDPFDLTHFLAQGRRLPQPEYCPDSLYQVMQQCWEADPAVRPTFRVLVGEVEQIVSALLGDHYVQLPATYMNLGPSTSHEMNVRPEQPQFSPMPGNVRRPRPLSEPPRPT

[4] = target: T1, Receptor-type tyrosine-protein kinase FLT3 (Homo sapiens, UniProt P36888); experiment: Inhibition of Flt-3 (unknown origin)
T1 sequence (P36888 whole entry): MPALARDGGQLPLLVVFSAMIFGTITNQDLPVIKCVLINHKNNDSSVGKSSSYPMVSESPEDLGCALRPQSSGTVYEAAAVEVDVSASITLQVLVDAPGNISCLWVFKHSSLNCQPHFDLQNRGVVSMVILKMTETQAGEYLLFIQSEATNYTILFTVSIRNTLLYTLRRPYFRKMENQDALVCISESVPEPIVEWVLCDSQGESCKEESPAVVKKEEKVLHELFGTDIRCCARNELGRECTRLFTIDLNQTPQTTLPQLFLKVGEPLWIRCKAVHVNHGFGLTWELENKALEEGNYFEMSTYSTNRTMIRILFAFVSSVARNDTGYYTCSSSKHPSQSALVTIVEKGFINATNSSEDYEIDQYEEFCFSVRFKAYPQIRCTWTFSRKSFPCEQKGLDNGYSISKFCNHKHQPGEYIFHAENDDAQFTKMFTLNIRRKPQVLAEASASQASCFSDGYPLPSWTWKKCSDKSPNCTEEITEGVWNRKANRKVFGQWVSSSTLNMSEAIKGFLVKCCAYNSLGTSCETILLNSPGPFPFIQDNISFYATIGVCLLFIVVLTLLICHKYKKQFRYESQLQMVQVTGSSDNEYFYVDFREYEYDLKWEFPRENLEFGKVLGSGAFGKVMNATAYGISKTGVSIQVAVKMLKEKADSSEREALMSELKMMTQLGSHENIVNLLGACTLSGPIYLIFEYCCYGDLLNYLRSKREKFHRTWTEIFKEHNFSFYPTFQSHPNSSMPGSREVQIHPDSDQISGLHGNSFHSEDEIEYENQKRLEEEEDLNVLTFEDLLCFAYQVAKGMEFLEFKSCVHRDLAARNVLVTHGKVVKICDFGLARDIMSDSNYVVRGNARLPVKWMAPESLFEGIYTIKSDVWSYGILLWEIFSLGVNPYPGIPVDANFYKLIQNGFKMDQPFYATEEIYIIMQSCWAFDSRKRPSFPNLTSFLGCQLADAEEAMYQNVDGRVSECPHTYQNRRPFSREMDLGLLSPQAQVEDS

[5] = target: T2, Tyrosine-protein kinase receptor UFO (Homo sapiens, UniProt P30530); experiment: Inhibition of Axl (unknown origin)
T2 sequence (P30530 whole entry): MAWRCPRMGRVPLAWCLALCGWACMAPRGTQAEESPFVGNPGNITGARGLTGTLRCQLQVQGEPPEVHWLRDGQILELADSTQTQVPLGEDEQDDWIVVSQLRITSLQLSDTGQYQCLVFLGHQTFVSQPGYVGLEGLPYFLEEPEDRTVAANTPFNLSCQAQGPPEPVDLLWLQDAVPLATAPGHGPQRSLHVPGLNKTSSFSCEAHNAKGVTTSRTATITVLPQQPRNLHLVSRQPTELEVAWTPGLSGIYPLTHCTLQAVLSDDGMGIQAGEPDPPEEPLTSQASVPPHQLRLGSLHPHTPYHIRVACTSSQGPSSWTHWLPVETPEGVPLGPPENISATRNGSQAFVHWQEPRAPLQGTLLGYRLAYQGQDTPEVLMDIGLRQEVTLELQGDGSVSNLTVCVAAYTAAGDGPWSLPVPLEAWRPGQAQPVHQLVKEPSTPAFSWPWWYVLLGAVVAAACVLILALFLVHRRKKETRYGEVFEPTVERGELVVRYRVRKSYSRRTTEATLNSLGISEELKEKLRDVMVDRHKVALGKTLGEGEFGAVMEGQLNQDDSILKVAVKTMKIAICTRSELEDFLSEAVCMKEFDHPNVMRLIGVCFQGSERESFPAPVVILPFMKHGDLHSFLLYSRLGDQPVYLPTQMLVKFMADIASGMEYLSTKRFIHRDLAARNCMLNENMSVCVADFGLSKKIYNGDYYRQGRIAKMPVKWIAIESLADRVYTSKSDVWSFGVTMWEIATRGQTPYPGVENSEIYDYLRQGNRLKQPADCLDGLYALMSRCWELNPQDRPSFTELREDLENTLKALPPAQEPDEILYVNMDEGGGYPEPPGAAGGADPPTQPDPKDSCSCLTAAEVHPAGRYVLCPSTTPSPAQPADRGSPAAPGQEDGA

[6] = Antitumor activity against mouse B16F10 cells implanted in naive mouse assessed as reduction in lung surface tumor burden at 30 mg/kg, po qd by Zeiss stereoscopic analysis relative to control; format: functional, B16-F10; parameters: scale not given: the % may be the effect or the level left
[7] = Antitumor activity against mouse B16F10 cells implanted in naive mouse assessed as reduction in lung surface tumor burden at 100 mg/kg, po qd by Zeiss stereoscopic analysis relative to control; format: functional, B16-F10; parameters: scale not given: the % may be the effect or the level left
[8] = Antitumor activity against mouse B16F10 cells implanted in naive mouse assessed as tumour growth inhibition at 30 mg/kg, po qd by Zeiss stereoscopic analysis relative to control; format: functional; conditions: B16-F10, po, read-out: TGI
[9] = Antitumor activity against mouse B16F10 cells implanted in naive mouse assessed as reduction in metastatic tumor burden at 100 mg/kg, po qd by Zeiss stereoscopic analysis relative to control; format: functional, B16-F10; parameters: scale not given: the % may be the effect or the level left
[10] = Antitumor activity against mouse B16F10 cells implanted in naive mouse assessed as tumour growth inhibition at 100 mg/kg, po qd by Zeiss stereoscopic analysis relative to control; format: functional; conditions: B16-F10, po, read-out: TGI
[11] = Antitumor activity against mouse B16F10 cells implanted in naive mouse assessed as reduction in metastatic tumor burden at 30 mg/kg, po qd by Zeiss stereoscopic analysis relative to control; format: functional, B16-F10; parameters: scale not given: the % may be the effect or the level left
[12] = tested on: HUVEC; experiment: Antiangiogenic activity in HUVEC assessed as inhibition of VEGF induced cell proliferation after 3 days by WST-1 assay; format: functional, cell-based; conditions: Homo sapiens, 72 h
[13] = Cytotoxicity against human SNU5 cells assessed as inhibition of tumour growth after 3 days by WST-8 assay; format: functional, cell-based; conditions: SNU-5, 72 h
[14] = tested on: HUVEC; experiment: Antiangiogenic activity in HUVEC assessed as inhibition of bFGF induced cell proliferation after 3 days by WST-1 assay; format: functional, cell-based; conditions: Homo sapiens, 72 h
[15] = Cytotoxicity against human MKN45 cells assessed as inhibition of tumour growth after 3 days by WST-8 assay; format: functional, cell-based; conditions: MKN-45, 72 h
[16] = Cytotoxicity against human Hs 746T cells assessed as inhibition of tumour growth after 3 days by WST-8 assay; format: functional, cell-based; conditions: Hs746T, 72 h
[17] = tested on: HUVEC; experiment: Antiangiogenic activity in HUVEC assessed as inhibition of HGF induced cell proliferation after 3 days by WST-1 assay; format: functional, cell-based; conditions: Homo sapiens, 72 h
[18] = target: Vascular endothelial growth factor receptor 2 (Homo sapiens, UniProt P35968); experiment: Inhibition of VEGFR-2 autophosphorylation in HUVEC after 1 hr by Western blot analysis; format: cell-based
Sequence of Vascular endothelial growth factor receptor 2 (P35968 whole entry): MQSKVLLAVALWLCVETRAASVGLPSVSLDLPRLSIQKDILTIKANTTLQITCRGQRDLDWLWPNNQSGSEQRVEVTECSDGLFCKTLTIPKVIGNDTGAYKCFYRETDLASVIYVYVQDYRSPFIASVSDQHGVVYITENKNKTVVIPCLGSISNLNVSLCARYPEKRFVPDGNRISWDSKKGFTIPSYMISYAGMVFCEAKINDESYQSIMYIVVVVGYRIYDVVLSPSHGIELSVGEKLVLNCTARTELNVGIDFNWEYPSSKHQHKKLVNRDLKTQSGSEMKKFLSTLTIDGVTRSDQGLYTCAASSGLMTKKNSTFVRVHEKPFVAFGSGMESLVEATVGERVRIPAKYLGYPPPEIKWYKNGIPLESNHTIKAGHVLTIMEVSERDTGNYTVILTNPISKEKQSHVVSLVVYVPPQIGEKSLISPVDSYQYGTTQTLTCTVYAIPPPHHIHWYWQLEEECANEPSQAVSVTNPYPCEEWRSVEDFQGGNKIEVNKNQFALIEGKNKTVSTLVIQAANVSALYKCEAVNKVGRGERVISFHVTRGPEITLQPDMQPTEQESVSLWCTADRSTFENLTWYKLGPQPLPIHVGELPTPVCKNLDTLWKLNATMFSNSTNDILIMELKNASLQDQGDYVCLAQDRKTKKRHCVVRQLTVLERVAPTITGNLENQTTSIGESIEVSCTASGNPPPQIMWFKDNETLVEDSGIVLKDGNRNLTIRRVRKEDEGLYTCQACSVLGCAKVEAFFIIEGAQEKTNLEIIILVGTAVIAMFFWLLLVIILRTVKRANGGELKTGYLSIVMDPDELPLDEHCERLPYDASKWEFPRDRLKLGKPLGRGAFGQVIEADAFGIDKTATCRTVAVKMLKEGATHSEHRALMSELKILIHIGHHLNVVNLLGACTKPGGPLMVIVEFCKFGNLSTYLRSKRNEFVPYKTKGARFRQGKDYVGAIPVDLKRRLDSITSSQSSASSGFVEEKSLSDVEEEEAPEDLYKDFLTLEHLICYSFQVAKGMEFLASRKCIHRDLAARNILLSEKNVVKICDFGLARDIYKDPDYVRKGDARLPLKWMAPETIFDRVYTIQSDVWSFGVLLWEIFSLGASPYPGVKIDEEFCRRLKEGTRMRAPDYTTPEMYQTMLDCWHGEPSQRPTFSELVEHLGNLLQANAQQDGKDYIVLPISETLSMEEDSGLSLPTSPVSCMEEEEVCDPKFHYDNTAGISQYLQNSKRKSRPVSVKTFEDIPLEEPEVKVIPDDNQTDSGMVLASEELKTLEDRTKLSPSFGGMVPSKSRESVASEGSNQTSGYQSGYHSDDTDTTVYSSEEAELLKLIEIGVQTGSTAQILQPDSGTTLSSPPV

[19] = Cytotoxicity against human EBC1 cells assessed as inhibition of tumour growth after 3 days by WST-8 assay; format: functional, cell-based; conditions: EBC-1, 72 h
[20] = target: Hepatocyte growth factor receptor (Homo sapiens, UniProt P08581); experiment: Inhibition of c-Met (unknown origin)
Sequence of Hepatocyte growth factor receptor (P08581 whole entry): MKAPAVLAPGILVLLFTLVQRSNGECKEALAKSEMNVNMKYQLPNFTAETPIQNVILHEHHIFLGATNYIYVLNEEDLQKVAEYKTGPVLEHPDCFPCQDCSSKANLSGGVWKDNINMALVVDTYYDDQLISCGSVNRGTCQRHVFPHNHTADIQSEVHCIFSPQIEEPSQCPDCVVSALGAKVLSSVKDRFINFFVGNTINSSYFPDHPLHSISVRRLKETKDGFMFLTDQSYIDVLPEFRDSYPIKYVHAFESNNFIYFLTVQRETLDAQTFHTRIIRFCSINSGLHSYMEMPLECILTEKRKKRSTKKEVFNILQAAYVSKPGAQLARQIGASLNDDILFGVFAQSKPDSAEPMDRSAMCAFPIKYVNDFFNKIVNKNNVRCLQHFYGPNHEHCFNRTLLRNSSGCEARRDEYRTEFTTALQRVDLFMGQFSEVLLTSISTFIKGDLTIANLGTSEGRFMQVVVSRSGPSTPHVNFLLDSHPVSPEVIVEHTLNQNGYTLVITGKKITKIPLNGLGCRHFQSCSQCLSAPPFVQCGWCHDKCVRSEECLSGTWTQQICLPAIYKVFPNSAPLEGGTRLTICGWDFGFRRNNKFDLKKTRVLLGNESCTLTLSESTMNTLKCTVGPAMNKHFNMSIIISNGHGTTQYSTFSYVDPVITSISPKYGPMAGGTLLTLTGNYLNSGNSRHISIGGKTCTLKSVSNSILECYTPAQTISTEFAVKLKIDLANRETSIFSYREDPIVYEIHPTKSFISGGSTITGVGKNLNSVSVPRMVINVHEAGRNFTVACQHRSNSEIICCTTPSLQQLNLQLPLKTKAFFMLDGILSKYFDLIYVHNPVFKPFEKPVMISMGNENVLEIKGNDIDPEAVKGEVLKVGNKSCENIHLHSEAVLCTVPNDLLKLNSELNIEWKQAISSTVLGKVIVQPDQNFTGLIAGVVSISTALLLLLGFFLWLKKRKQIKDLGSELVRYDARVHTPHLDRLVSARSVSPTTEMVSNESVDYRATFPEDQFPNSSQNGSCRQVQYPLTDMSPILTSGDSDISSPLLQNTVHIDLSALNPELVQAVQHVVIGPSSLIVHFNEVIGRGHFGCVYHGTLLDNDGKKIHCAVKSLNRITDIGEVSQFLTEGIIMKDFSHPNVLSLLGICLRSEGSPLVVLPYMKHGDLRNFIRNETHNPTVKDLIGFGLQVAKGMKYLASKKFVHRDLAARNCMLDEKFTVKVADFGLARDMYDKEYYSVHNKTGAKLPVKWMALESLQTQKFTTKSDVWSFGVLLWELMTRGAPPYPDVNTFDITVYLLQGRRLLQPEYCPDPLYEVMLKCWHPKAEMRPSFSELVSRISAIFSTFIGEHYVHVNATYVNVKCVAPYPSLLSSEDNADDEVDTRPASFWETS

[21] = Cytotoxicity against HUVEC assessed as inhibition of VEGF-independent growth after 72 hrs by CellTiter-Glo method; format: cell-based; conditions: human, HUVEC cells

IC50 [1]: 5.5 nM
IC50 [2]: 7.7 nM
Structure (SMILES): CC1=[N+](c2ccccc2)C(=O)C(C(=O)Nc2ccc(Oc3ccc4nc(NC(=O)C5CC5)cn4c3)c(F)c2)C=C1 (stereo not drawn)

IC50 [3]: < 3 nM
IC50 [4]: < 3 nM
IC50 [5]: < 3 nM
Structure (SMILES): Nc1nccc(Oc2ccc(NC(=O)c3c[nH]cc(-c4ccc(F)cc4)c3=O)cc2F)c1Cl [BMS-794833]

Structure (SMILES): COc1cc2c(Oc3ccc(NC(=O)C4(C(=O)Nc5ccc(F)cc5)CC4)cc3F)ccnc2cc1OCCCN1CCOCC1 [FORETINIB]
Activity [6]: 50%
Activity [7]: 58%
inhibition in vivo at 30 mg/kg [8]: 64%
Activity [9]: 62%
inhibition in vivo at 100 mg/kg [10]: 87%
Activity [11]: 31%

IC50 [18]: 16 nM
Structure (SMILES): CN1CCN(C2CCN(C(=O)Nc3cc(Oc4ccc(NC(=O)C5(C(=O)Nc6ccc(F)cc6)CC5)c(F)c4)ccn3)CC2)CC1 [GOLVATINIB]
IC50 [12]: 84 nM
IC50 [13]: 24 nM
IC50 [14]: > 1000 nM
IC50 [15]: 37 nM
IC50 [16]: 23 nM
IC50 [17]: 17 nM
IC50 [19]: 6.2 nM

IC50 [20]: 4 nM
Structure (SMILES): Cn1cc(-c2ccc3nnc(C(F)(F)c4ccc5ncccc5c4)n3n2)cn1 [JNJ-38877605]

IC50 [20]: 0.4 nM
Structure (SMILES): CN(C[C@@H]1COCCO1)S(=O)(=O)Nc1ccc2ccc3ncc(-c4cnn(C)c4)cc3c(=O)c2c1 [MK-2461]

Structure (SMILES): CNC(=O)c1cc2c(Oc3ccc(NC(=S)NC(=O)Cc4ccccc4)cc3F)ccnc2cc1OC [TAS-115]
GI50 at 72 h [21]: > 10000 nM

Ki [20]: 355 nM
Structure (SMILES): O=C1NC(=O)[C@@H](c2cn3c4c(cccc24)CCC3)[C@@H]1c1c[nH]c2ccccc12 [TIVANTINIB]
